Laboratory results reported in PubChem BioAssay AID2060345 (Molecular Pharmacology Branch, DTP, NCI, 2025).
Values joined by “and” are separate entries in the source; they are usually repeats but may differ in a detail not shown here. Equal values may be shown once.

System: MALME-3M multicell spheroids, viability
Assay: Anticancer human tumor MALME-3M cell line growth inhibition [TAK];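 further: spheroids exposed to drugs for seven days before readout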;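 on viability, T/C: 100% = DMSO vehicle control viability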
Conditions: for viability, T/C: stronger effect = lower value
Description: Combinatorial screen of targeted agents with TAK-243 and ipatasertib in multi-cell type tumor spheroids
A high-throughput screen of multi-cell type tumor spheroids was designed to identify active combinations of targeted small molecules and TAK-243 or ipatasertib. Complex spheroids include a stromal component modeled by human endothelial cells (HUVEC) and fibroblasts modeled by human mesenchymal stem cells (MSCs). The concentration ranges selected for each drug and investigational agent were based upon clinically achievable concentrations if the clinical Cmax of the agent was known.
Compounds. The drugs and investigational agents: TAK-243 (785004), ipatasertib (767898), everolimus (733504), selumetinib (741078), bortezomib (756655), trametinib (758246), ixazomib (758254), vemurafenib (761431), dabrafenib (764134), sapanisertib (764658), alpelisib (765974), and copanlisib (816437), were obtained from the National Cancer Institute (NCI) Developmental Therapeutics Program Chemical Repository. The FDA-approved anticancer drug set is available from the NCI Developmental Therapeutics Program. […] The stock solutions were prepared in dimethyl sulfoxide (DMSO, Sigma-Aldrich, St. Louis, MO, cat. D2650) at 800-fold the tested concentration and stored at -70 degrees C prior to their use. All drugs and investigational agents were tested over a range starting from a high concentration at or near the clinical Cmax and decreasing in half-log increments. If the clinical Cmax for an agent had not been determined, the highest concentration tested was 10 microM.
NCI60 Cell Culture. NCI60 cell lines were obtained from the NCI Developmental Therapeutics Program Tumor Repository. For each lot of cells, the Repository performed Applied Biosystems AmpFLSTR Identifiler testing with PCR amplification to confirm consistency with the published Identifier STR profile for each cell line. Cells were kept in continuous culture for no more than 20 passages. The optimal seeding densities for each of the cell lines at each time point assessed were determined prior to performing the concentration response studies. Briefly, the NCI60 human tumor lines were grown as monolayers in RPMI 1640 medium supplemented with 10% FBS and 2 mmol/L L-glutamine.
An additional 2 lines were from the NCI60 cell line panel including melanomas, MALME-3M and SK-MEL-2. Pooled donor human umbilical vein endothelial cells (HUVEC, Lonza, cat. CC-2519) and human mesenchymal stem cells (hMSC, Lonza, cat. PT-2501) were purchased from Lonza (Walkersville, MD).
PDMR cell lines were grown in complete medium (DC medium): Dulbecco's modified Eagle's medium (DMEM)/F12 supplemented with 5% fetal bovine serum (FBS), 2 mM L-glutamine, 100 U/mL penicillin and 100 µg/ml streptomycin, 0.4 µg/ml hydrocortisone, 10 ng/ml epidermal growth factor (EGF) recombinant human protein, 24 µg/mL adenine, and 0.1 mg/mL primocin. During culture from frozen stock vials, PDMR cells were cultured in the same medium containing 10 µM Y-27632 (see Table 3). The PDCs were cultured in complete DMEM/F12 media without 10 microM Y-27632 dihydrochloride for at least two passages prior to the screen. The pooled donor HUVEC and hMSC were cultured in endothelial cell growth medium 2 (PromoCell, Heidelberg, Germany, cat. C-22011) and mesenchymal stem cell growth medium 2 (PromoCell, cat. C-28009), respectively. For all experiments, HUVEC and hMSC were used at passages </=5.
For the pre-screen, cell seeding densities were determined from a titration spanning the range from 5,000 to 313 cells per well. The mct-spheroids including 60% malignant cells, 25% HUVEC and 15% MSC dispensed as a mixture into U-bottom Ultra-Low Attachment 384-well plates (Corning, NY)
High-throughput Drug Combination Screening.
Prior to their inoculation into 384-well plates, malignant cells, HUVEC, and hMSC were removed from T flasks using TrypLE express (Thermo Fisher Scientific, cat. 12605036) and harvested by centrifugation for 5 min at 233 x g. […]

[1] = curve of first compound, second compound 0.3 µM
[2] = curve of first compound, second compound 0.949 µM
[3] = curve of first compound, second compound 3 µM
[4] = curve of first compound, second compound 9.49 µM
[5] = curve of first compound, second compound 30 µM

CCCS(=O)(=O)Nc1ccc(F)c(C(=O)c2c[nH]c3ncc(-c4ccc(Cl)cc4)cc23)c1F + CC(C)NCC(C(=O)N1CCN(c2ncnc3c2C(C)CC3O)CC1)c1ccc(Cl)cc1
IC50 [1]: < 0.316 µM
IC50 [2]: < 0.316 µM
IC50 [3]: < 0.316 µM
IC50 [4]: < 0.316 µM
IC50 [5]: < 0.316 µM
viability, T/C (second compound 0.3 µM, first compound 0.316 µM): 29.3%
viability, T/C (second compound 0.3 µM, first compound 1 µM): 21.5%
viability, T/C (second compound 0.3 µM, first compound 3.16 µM): 23.6%
viability, T/C (second compound 0.3 µM, first compound 10 µM): 19.3%
viability, T/C (second compound 0.3 µM, first compound 31.6 µM): 0.51%
viability, T/C (second compound 0.3 µM, first compound 100 µM): 11.1%
viability, T/C (second compound 0.949 µM, first compound 0.316 µM): 31.8%
viability, T/C (second compound 0.949 µM, first compound 1 µM): 25.8%
viability, T/C (second compound 0.949 µM, first compound 3.16 µM): 23.6%
viability, T/C (second compound 0.949 µM, first compound 10 µM): 22.1%
viability, T/C (second compound 0.949 µM, first compound 31.6 µM): 2.72%
viability, T/C (second compound 0.949 µM, first compound 100 µM): 12.1%
viability, T/C (second compound 3 µM, first compound 0.316 µM): 30%
viability, T/C (second compound 3 µM, first compound 1 µM): 24.9%
viability, T/C (second compound 3 µM, first compound 3.16 µM): 21.4%
viability, T/C (second compound 3 µM, first compound 10 µM): 15.9%
viability, T/C (second compound 3 µM, first compound 31.6 µM): 1.69%
viability, T/C (second compound 3 µM, first compound 100 µM): 3.88%
viability, T/C (second compound 9.49 µM, first compound 0.316 µM): 24.8%
viability, T/C (second compound 9.49 µM, first compound 1 µM): 20.6%
viability, T/C (second compound 9.49 µM, first compound 3.16 µM): 17.9%
viability, T/C (second compound 9.49 µM, first compound 10 µM): 10.8%
viability, T/C (second compound 9.49 µM, first compound 31.6 µM): 0.89%
viability, T/C (second compound 9.49 µM, first compound 100 µM): 1.65%
viability, T/C (second compound 30 µM, first compound 0.316 µM): 15.1%
viability, T/C (second compound 30 µM, first compound 1 µM): 16.4%
viability, T/C (second compound 30 µM, first compound 3.16 µM): 9.92%
viability, T/C (second compound 30 µM, first compound 10 µM): 0.89%
viability, T/C (second compound 30 µM, first compound 31.6 µM): 0.35%
viability, T/C (second compound 30 µM, first compound 100 µM): 0.54%

COc1c(OCCCN2CCOCC2)ccc2c3n(c(=NC(=O)c4cnc(N)nc4)nc12)CCN3
viability, T/C (compound 0.00316 µM): 92.7% and 95.3%
viability, T/C (compound 0.01 µM): 71.3% and 85.2%
viability, T/C (compound 0.0316 µM): 70.3% and 76.1%
viability, T/C (compound 0.1 µM): 51.1% and 48.3%
viability, T/C (compound 0.316 µM): 19% and 21.5%
viability, T/C (compound 1 µM): 8.97% and 8.52%
IC50 (curve of compound): 0.084 µM and 0.0929 µM

CC(C)CC(NC(=O)C(Cc1ccccc1)NC(=O)c1cnccn1)B(O)O (stereo unspecified)
viability, T/C (compound 31.6 pM): 105% and 95.5%
viability, T/C (compound 0.0001 µM): 97.5% and 87.7%
viability, T/C (compound 0.000316 µM): 98.5% and 86.3%
viability, T/C (compound 0.001 µM): 97.5% and 70.5%
viability, T/C (compound 0.00316 µM): 25.8% and 18.3%
viability, T/C (compound 0.01 µM): 0.68% and 0.19%
IC50 (curve of compound): 0.00214 µM and 0.00156 µM

COC1CC2CCC(C)C(O)(O2)C(=O)C(=O)N2CCCCC2C(=O)OC(C(C)CC2CCC(OCCO)C(OC)C2)CC(=O)C(C)C=C(C)C(O)C(OC)C(=O)C(C)CC(C)C=CC=CC=C1C (stereo unspecified)
viability, T/C (compound 0.000316 µM): 83% and 79.4%
viability, T/C (compound 0.001 µM): 66.2% and 59.1%
viability, T/C (compound 0.00316 µM): 58.1% and 59.4%
viability, T/C (compound 0.01 µM): 52.3% and 58.6%
viability, T/C (compound 0.0316 µM): 50.5% and 50.7%
viability, T/C (compound 0.1 µM): 44.2% and 44%
IC50 (curve of compound): 0.0186 µM and 0.0281 µM

Cn1cnc2c(F)c(Nc3ccc(Br)cc3Cl)c(C(=O)NOCCO)cc21 + CC(C)NCC(C(=O)N1CCN(c2ncnc3c2C(C)CC3O)CC1)c1ccc(Cl)cc1
IC50 [1]: 0.0411 µM
IC50 [2]: 0.036 µM
IC50 [3]: 0.0365 µM
IC50 [4]: 0.0172 µM
IC50 [5]: < 0.00949 µM
viability, T/C (second compound 0.3 µM, first compound 0.00949 µM): 92.5%
viability, T/C (second compound 0.3 µM, first compound 0.03 µM): 60.7%
viability, T/C (second compound 0.3 µM, first compound 0.0949 µM): 21%
viability, T/C (second compound 0.3 µM, first compound 0.3 µM): 19%
viability, T/C (second compound 0.3 µM, first compound 0.949 µM): 13.1%
viability, T/C (second compound 0.3 µM, first compound 3 µM): 5.91%
viability, T/C (second compound 0.949 µM, first compound 0.00949 µM): 86.2%
viability, T/C (second compound 0.949 µM, first compound 0.03 µM): 55.6%
viability, T/C (second compound 0.949 µM, first compound 0.0949 µM): 23.5%
viability, T/C (second compound 0.949 µM, first compound 0.3 µM): 16.7%
viability, T/C (second compound 0.949 µM, first compound 0.949 µM): 12%
viability, T/C (second compound 0.949 µM, first compound 3 µM): 4.79%
viability, T/C (second compound 3 µM, first compound 0.00949 µM): 78.3%
viability, T/C (second compound 3 µM, first compound 0.03 µM): 56.6%
viability, T/C (second compound 3 µM, first compound 0.0949 µM): 19.6%
viability, T/C (second compound 3 µM, first compound 0.3 µM): 16.3%
viability, T/C (second compound 3 µM, first compound 0.949 µM): 9.28%
viability, T/C (second compound 3 µM, first compound 3 µM): 3.64%
viability, T/C (second compound 9.49 µM, first compound 0.00949 µM): 66.8%
viability, T/C (second compound 9.49 µM, first compound 0.03 µM): 33.1%
viability, T/C (second compound 9.49 µM, first compound 0.0949 µM): 19.6%
viability, T/C (second compound 9.49 µM, first compound 0.3 µM): 12.1%
viability, T/C (second compound 9.49 µM, first compound 0.949 µM): 7.13%
viability, T/C (second compound 9.49 µM, first compound 3 µM): 2.1%
viability, T/C (second compound 30 µM, first compound 0.00949 µM): 47.3%
viability, T/C (second compound 30 µM, first compound 0.03 µM): 31.6%
viability, T/C (second compound 30 µM, first compound 0.0949 µM): 13.1%
viability, T/C (second compound 30 µM, first compound 0.3 µM): 7.49%
viability, T/C (second compound 30 µM, first compound 0.949 µM): 3.66%
viability, T/C (second compound 30 µM, first compound 3 µM): 0.52%
